Laboratory results as given in article PMC8160210, “Single tryptophan Y160W mutant of homooligomeric E. coli purine nucleoside phosphorylase implies that dimers forming the hexamer are functionally not equivalent” (Scientific Reports, 2021).
Where two headings read alike, the source gives them in different places.

Columns and labels:
WT E. coli PNP [1] = molecular target: T1, WT E. coli PNP (Escherichia coli, UniProt P0ABP8); test: Near-UV CD titrations; type: binding; settings: for Kd: CD titrations with phosphate, three-binding-site model, 25 °C
T1 construct: made in house
T1 sequence (P0ABP8 2-239 limits assumed): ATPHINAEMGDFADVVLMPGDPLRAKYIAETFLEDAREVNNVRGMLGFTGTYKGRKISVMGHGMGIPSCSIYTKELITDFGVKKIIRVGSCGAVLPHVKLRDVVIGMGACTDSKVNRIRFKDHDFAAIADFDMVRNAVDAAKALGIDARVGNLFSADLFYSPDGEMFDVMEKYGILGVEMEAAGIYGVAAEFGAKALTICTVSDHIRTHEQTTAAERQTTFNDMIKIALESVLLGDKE
Procedure: (§1) Experiments were performed with Chirascan spectrophotometer (Applied Photophysics), in the near UV region (240–290 nm), thus in the region where aromatic amino acids absorb. Full spectra of the protein/complex were recorded, with 0.2 nm resolution and 2 s averaging per point. Enzyme concentration was in the range of 20–120 μM, the 50 mM Tris/HCl buffer pH 7.6 was used, ligands were dissolved in the same buffer. All measurements were performed at 25 °C. Upon addition of each volume of phosphate solution spectrum was recorded in the range 230–300 nm, in the amino acids absorption region, with 0.25 nm step and 2 s per point signal averaging. Spectra were smoothed with Savitzky-Golay algorithm[44] using a fourth degree polynomial and eleven points in the averaging window. The wavelengths of the greatest signal change were determined by calculating differential spectra. These wavelengths were used to plot the titration curves. Global analysis of five to seven curves was performed with DynaFit4[40].
(§2) Three models were taken into account in analysis of binding curves: model with one (first equation below), two (first two equations) and three binding sites. P+L⇔PLwithKd1PL+L⇔PLLwithKd2PLL+L⇔PLLLwithKd3
(§3) The model with one binding site is based on the assumption that all monomers are equivalent, and there is no cooperation between them. In the model with two binding sites the basic functional unit of the protein is a dimer, possible non-equivalence of binding sites or cooperativity between active sites in the dimer are taken into account (in the case of no cooperativity dissociation constants should be related statistically: Kd2 = 4Kd1), the dimers within hexamer are equivalent. The model with three binding sites is based on the crystallographic structures of binary and ternary complexes of PNP with ligands, where two of the dimers are in the “open-closed” conformation, but the third dimer is symmetrical, in the “open-open” conformation. Thus, active sites in the open conformation belonging to “open-closed” and “open-open” dimer may not be equivalent. […]
(§4) Titration series were analysed globally, always starting from the simplest, one-binding-site model. […] For all tested models the Akaike information criterion[23] was also calculated. […] Analysed models were fitted to the raw data, whereas graphs presented in this study were prepared from the normalised data and the fitted curves. […] Responses are defined as changes in a measured physical quantity related to the formation of subsequent protein–ligand complexes: intrinsic protein fluorescence intensity, fluorescence intensity of the dye, heat and ellipticity for fluorimetric, thermophoretic, calorimetric and CD titrations, respectively. […]

Y160W PNP mutant = Y160W PNP mutant (Escherichia coli, UniProt P0ABP8, Y161W); test: Near-UV CD titrations; type: binding, E. coli; parameters: made in house; host or cells: E. coli DH5α-T1; settings: for Kd: CD titrations with phosphate, three-binding-site model, 25 °C
Sequence of Y160W PNP mutant (P0ABP8 2-239 Y161W): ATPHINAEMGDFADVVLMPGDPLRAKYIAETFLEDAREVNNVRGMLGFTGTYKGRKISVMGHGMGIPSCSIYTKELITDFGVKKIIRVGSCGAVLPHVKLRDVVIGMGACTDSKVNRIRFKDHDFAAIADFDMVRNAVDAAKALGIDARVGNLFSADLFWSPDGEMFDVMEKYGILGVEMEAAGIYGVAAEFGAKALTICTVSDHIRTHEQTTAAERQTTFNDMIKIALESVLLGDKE
Procedure: as §1, §2, §3, §4

WT E. coli PNP [2] = molecular target: T1, WT E. coli PNP; parameters: method as in PMID 30337572; settings: phosphate as variable substrate, 250 μM m^7Guo, allostery Eq. (2), cited from earlier work
[3] = 50 mM Tris/HCl pH 7.6, read-out: Kd1 ± SD
[4] = 50 mM Tris/HCl pH 7.6, read-out: Kd2 ± SD
[5] = 50 mM Tris/HCl pH 7.6, read-out: Kd3 ± SD

For `Nc1ncnc2c([C@@H]3O[C@H](CO)[C@@H](O)[C@H]3O)[nH]nc12` [FA, Formycin A], the “Change in CD signal upon binding” value (WT E. coli PNP [1]; formycin A binding) was “no changes in the CD signal” and the “Change in CD signal upon binding” value (Y160W PNP mutant; formycin A binding) was “no changes in the CD signal”.

For `O=P(O)(O)O` [Pi, Orthophosphate], the Km (WT E. coli PNP [2]; pH 7.0, 25 °C) is given as 15 ± 4 µM, the Vmax (WT E. coli PNP [2]; pH 7.0, 25 °C) is given as 10.8 ± 0.7 U/mg and the “a (cooperativity coefficient, KM2 = aKM1)” value (WT E. coli PNP [2]) is given as 267 ± 232. The “b (cooperativity coefficient, Vmax2 = bVmax1)” value (WT E. coli PNP [2]) was 0.76 ± 0.06, the Kd (WT E. coli PNP [1]; [3]) was 0.58 µM and the Kd (WT E. coli PNP [1]; [4]) was 107 µM. The Kd (WT E. coli PNP [1]; [5]) was 1030 µM, the Kd (Y160W PNP mutant; [3]) was 4.13 µM and the Kd (Y160W PNP mutant; [4]) was 128 µM. For the same compound, the Kd (Y160W PNP mutant; [5]) was 2330 µM.
